{"source": "paper PMC7604625", "about": "“Glycolysis regulates Hedgehog signalling via the plasma membrane potential” (The EMBO Journal, 2020)", "key": {"[1]": {"test_system": "PAC-NAE uptake into wing discs", "experiment": "Lipophorin-mediated PAC-NAE uptake in wing discs", "type": "cell-based, Drosophila", "description": "The isolation procedure of Lipophorin (Lpp) particles was adapted from Panakova et al (2005). Briefly, 10 ml feeding third‐instar larvae were first washed with water and then with TNE buffer (100 mM Tris–HCl pH 7.5, 150 mM NaCl, 0.2 mM EGTA, cOmplete™ protease inhibitor cocktail (Roche, #000000011697498001)). All following steps were conducted at 4 °C (unless stated otherwise). Larvae were homogenized in TNE buffer in a tissue grinder with a loose pestle, and the homogenate was centrifuged for 10 min at 1,000 × g and afterwards for 3 h at 142,000 × g. The resulting supernatant (10 ml) was mixed with 40 μl 10 mM PAC‐NAE (EtOH solution) and sonicated for 5 min. […]\n(§1) Only ring glands and wing discs that were processed in parallel, imaged using the same microscope settings, and properly mounted were used for quantifications. For quantification of immunohistochemical staining of CD8::GFP in ring glands, the mean pixel intensity of two regions of interest of 25 × 25 μm per ring gland was determined using ROI manager, and the average of these was used for the statistical analysis. For quantification of compartment size, wing disc folds served as morphological landmarks to outline the region of the wing pouch and the D/V boundary. The area of dorsal and ventral compartment was then determined using ROI manager. […] The A/P boundary was determined according to anti‐Ci155 or anti‐Ptc co‐immunostaining. […]"}, "[2]": {"test_system": "Smo-mEos2 localization to the primary cilium in NIH3T3 cells", "experiment": "Smo-mEos2 ciliary localization in NIH3T3/Smo-mEos2 cells (immunofluorescence)", "type": "cell-based", "settings": "Hh ligands not present", "description": "NIH3T3/Smo‐mEos2 cells (Kim et al, 2014) (a gift from P. Beachy, SUSM, Stanford, CA, USA) were grown to confluence on coverslips in DMEM (Thermo Fisher Scientific, #31966021) supplemented with 10% FBS (Thermo Fisher Scientific, #10270106), 1% penicillin/streptomycin (Thermo Fisher Scientific, #15140122) and 1% MEM non‐essential amino acids (Thermo Fisher Scientific, #11140050) at 37°C. For SAG, 3‐BP and 2‐DG treatment, cells were then shifted to serum‐deprived medium containing 0.5% FBS instead of 10% FBS and incubated for 24 h with 100 nM SAG (Merck, #566660), 25 mM of 2‐DG (ROTH, #CN96.3) or 15 μM 3‐BP (Sigma‐Aldrich, #16490‐10G), respectively, or without any compound at 37°C. […]\nas §1, with “mean grey value” for “A/P boundary”, “measured using ROI manager.” for “determined according to anti‐Ci155 or anti‐Ptc co‐immunostaining.”"}, "[3]": {"test_system": "ATP levels in ubi-AT1.03NL wing discs", "experiment": "Measurement of ATP using FRET-based ATP sensor AT1.03NL in explanted wing discs", "type": "cell-based, Drosophila", "settings": "explanted wing discs treated with antimycin A for 2 h", "description": "Wing discs from up‐crawling third‐instar larvae were dissected within 10 min in Grace's medium supplemented with 5% FBS and 20 nM 20‐hydroxyecdysone (Dye et al, 2017). Dissected wing discs were mounted with their basal side up on glass‐bottom dishes (MatTek Corporation, #P35G‐1.0‐20‐C) with a double‐sided tape spacer and immobilized with a Whatman™ Cyclopore™ track‐etched polycarbonate membrane filter (GE Healthcare Life Sciences, #7062‐2513). Imaging of ubi‐AT1.03NL wing discs was performed on an Olympus IX81 microscope equipped with Yokogawa spinning disk (CSU‐W1, Yokogawa) and Ixon Ultra EMCCD camera (Andor). The sensitized emission method was used to measure FRET. Wing discs were excited with a 445 nm laser twice in a sequential manner. Upon first excitation, emission of mse‐CFP was collected using an HQ 480/40 bandpass filter. Upon second excitation, emission of cpVenus‐FRET was collected using an HQ 542/27 filter. The emission of cpVenus‐FRET has contributions from the energy transfer from mse‐CFP and bleed‐through of mse‐CFP into the HQ 542/27 filter. […]\nA custom‐written MATLAB (MathWorks) script was used to estimate the FRET efficiency from the fluorescence images. […]\nThe FRET efficiency (η) was calculated as, η=IFRET/ID+IFRET […]"}, "[4]": {"test_system": "plasma membrane potential of wing discs", "experiment": "Membrane potential assay with DiBAC4(3) in wing discs", "type": "cell-based, Drosophila", "settings": "wing discs incubated with 1 μM gramicidin A for 30 min at 29°C", "description": "To investigate the plasma membrane potential, we used the membrane potential‐sensitive dye DiBAC4(3) (Thermo Fisher Scientific, #B438). Wing discs from up‐crawling third‐instar larvae were dissected in Grace's medium supplemented with 5% FBS and 20 nM 20‐hydroxyecdysone (full medium) (Dye et al, 2017), and incubated with 500 nM DiBAC4(3) in full medium for 15 min at 29°C. After washing twice with full medium, wing discs were mounted and imaged immediately. A higher fluorescence intensity of DiBAC4(3) indicates depolarization of the plasma membrane. […]\nOnly ring glands and wing discs that were processed in parallel, imaged using the same microscope settings, and properly mounted were used for quantifications. For quantification of immunohistochemical staining of CD8::GFP in ring glands, the mean pixel intensity of two regions of interest of 25 × 25 μm per ring gland was determined using ROI manager, and the average of these was used for the statistical analysis. For quantification of compartment size, wing disc folds served as morphological landmarks to outline the region of the wing pouch and the D/V boundary. The area of dorsal and ventral compartment was then determined using ROI manager. […] The A/P boundary was determined according to anti‐Ci155 or anti‐Ptc co‐immunostaining. […] The mean grey value was measured using ROI manager. […] The integrated density was measured using ROI manager. […]"}}}
{"molecule": "C#CCCCC1(CCCCCCCCC(=O)NCCO)N=N1", "note": "[PAC-NAE]", "values": [{"measurement": "PAC-NAE accumulation in wing disc tissue", "setting": "[1]; knock-down of either ecd or Gapdh in the dorsal compartment, 1.5 μM PAC-NAE labelled Lpp particles", "value": "autonomously reduced"}]}
{"molecule": "O=C(O)C(=O)CBr", "note": "[3-BP, 3‐bromopyruvate]", "values": [{"measurement": "Smo-mEos2 accumulation in the primary cilium", "setting": "[2]", "value": "accumulates in the primary cilium"}]}
{"molecule": "O=CC[C@@H](O)[C@H](O)[C@H](O)CO", "note": "[2-DG, 2‐deoxyglucose]", "values": [{"measurement": "Smo-mEos2 accumulation in the primary cilium", "setting": "[2]", "value": "accumulates in the primary cilium"}]}
{"molecule": "CCCCCC[C@H]1C(=O)O[C@H](C)[C@H](NC(=O)c2cccc(NC=O)c2O)C(=O)O[C@@H](C)[C@@H]1OC(=O)CC(C)C", "note": "[antimycin A]", "values": [{"measurement": "FRET signal of ubi-AT1.03NL (cellular ATP levels)", "setting": "[3]", "value": "strongly reduced"}]}
{"molecule": "gramicidin A", "values": [{"measurement": "Plasma membrane potential (DiBAC4(3) signal intensity)", "setting": "[4]", "value": "dissipate the plasma membrane potential"}, {"measurement": "Uptake of PAC-NAE", "setting": "[1]; wing discs incubated with 1 μM gramicidin A, compared to control discs", "value": "strongly reduces"}]}
